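The concentration for 50% growth inhibition is given as GI50. TGI: concentration producing complete growth inhibition.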
What was measured:
Test in all cases: inhibition of tumour cell growth, NCI panel, 384-well format
SF-268 CNS = test system: SF-268 CNS
SK-OV-3 ovarian = test system: SK-OV-3 ovarian
KM12 colon = test system: KM12 colon
IGROV1 ovarian = test system: IGROV1 ovarian
SNB-19 CNS = test system: SNB-19 CNS
SF-539 CNS = test system: SF-539 CNS
HL-60(TB) leukemia = test system: HL-60(TB) leukemia
MDA-MB-231 breast = test system: MDA-MB-231 breast
M14 melanoma = test system: M14 melanoma
EKVX NSCLC = test system: EKVX NSCLC
MCF7 breast = test system: MCF7 breast
SN12C renal = test system: SN12C renal
MALME-3M melanoma = test system: MALME-3M melanoma
COLO 205 colon = test system: COLO 205 colon
OVCAR-4 ovarian = test system: OVCAR-4 ovarian
RXF 393 renal = test system: RXF 393 renal
MDA-MB-435 melanoma = test system: MDA-MB-435 melanoma
HT29 colon = test system: HT29 colon
NCI/ADR-RES ovarian = test system: NCI/ADR-RES ovarian
HOP-92 NSCLC = test system: HOP-92 NSCLC
OVCAR-8 ovarian = test system: OVCAR-8 ovarian
SW-620 colon = test system: SW-620 colon
U251 glioblastoma = test system: U251 glioblastoma
LOX IMVI melanoma = test system: LOX IMVI melanoma
A549 NSCLC = test system: A549 NSCLC
UACC-257 melanoma = test system: UACC-257 melanoma
OVCAR-3 ovarian = test system: OVCAR-3 ovarian
SF-295 CNS = test system: SF-295 CNS
NCI-H226 lung = test system: NCI-H226 lung
NCI-H322M lung = test system: NCI-H322M lung
A498 renal = test system: A498 renal
TK-10 renal = test system: TK-10 renal
HOP-62 NSCLC = test system: HOP-62 NSCLC
PC-3 prostate = test system: PC-3 prostate
NCI-H460 NSCLC = test system: NCI-H460 NSCLC
NCI-H522 lung = test system: NCI-H522 lung
MDA-MB-468 breast = test system: MDA-MB-468 breast
UO-31 renal = test system: UO-31 renal
K-562 leukemia = test system: K-562 leukemia
786-0 renal = test system: 786-0 renal
OVCAR-5 ovarian = test system: OVCAR-5 ovarian
HCT-116 colon = test system: HCT-116 colon
SNB-75 CNS = test system: SNB-75 CNS
MOLT-4 leukemia = test system: MOLT-4 leukemia
HCT-15 colon = test system: HCT-15 colon
CCRF-CEM leukemia = test system: CCRF-CEM leukemia
BT-549 breast = test system: BT-549 breast
HS 578T breast = test system: HS 578T breast
SK-MEL-5 melanoma = test system: SK-MEL-5 melanoma
SK-MEL-28 melanoma = test system: SK-MEL-28 melanoma
T-47D breast = test system: T-47D breast
CAKI-1 renal = test system: CAKI-1 renal
RPMI-8226 leukemia = test system: RPMI-8226 leukemia
NCI-H23 lung = test system: NCI-H23 lung
HCC-2998 colon = test system: HCC-2998 colon
ACHN renal = test system: ACHN renal
DU-145 prostate = test system: DU-145 prostate
SR leukemia = test system: SR leukemia
SK-MEL-2 melanoma = test system: SK-MEL-2 melanoma
UACC-62 melanoma = test system: UACC-62 melanoma

## O=C(N[C@@H](Cc1coc2ccccc12)B(O)O)[C@@H]1C[C@H]2CC[C@@H]1O2
SF-268 CNS
  GI50: 2450 nM
  TGI: 7.43 µM
SK-OV-3 ovarian
  GI50: 4710 nM
  TGI: 55.7 µM
KM12 colon
  GI50: 5640 nM
  TGI: 23.2 µM
IGROV1 ovarian
  GI50: 18.6 µM
  TGI: 92.1 µM
SNB-19 CNS
  GI50: 4700 nM
  TGI: 23.1 µM
SF-539 CNS
  GI50: 1510 nM
  TGI: 2920 nM
HL-60(TB) leukemia
  GI50: 355 nM
  TGI: 1360 nM
MDA-MB-231 breast
  GI50: 4.86 µM
  TGI: 23.3 µM
M14 melanoma
  GI50: 2730 nM
  TGI: 9.07 µM
EKVX NSCLC
  GI50: 6.89 µM
  TGI: 91.9 µM
MCF7 breast
  GI50: 1680 nM
  TGI: > 100000 nM
SN12C renal
  GI50: 10.7 µM
  TGI: > 100 µM
MALME-3M melanoma
  GI50: 1170 nM
  TGI: 3190 nM
COLO 205 colon
  GI50: 21.2 µM
  TGI: > 100000 nM
OVCAR-4 ovarian
  GI50: 7.3 µM
  TGI: 60.6 µM
RXF 393 renal
  GI50: 1220 nM
  TGI: 2910 nM
MDA-MB-435 melanoma
  GI50: 1450 nM
  TGI: 2990 nM
HT29 colon
  GI50: 1830 nM
  TGI: 4440 nM
NCI/ADR-RES ovarian
  GI50: 34.8 µM
  TGI: > 100 µM
HOP-92 NSCLC
  GI50: 13.9 µM
  TGI: 77.7 µM
OVCAR-8 ovarian
  GI50: 30.9 µM
  TGI: > 100000 nM
SW-620 colon
  GI50: 1810 nM
  TGI: 3.83 µM
U251 glioblastoma
  GI50: 14.8 µM
  TGI: 52.5 µM
LOX IMVI melanoma
  GI50: 3990 nM
  TGI: 16.8 µM
A549 NSCLC
  GI50: 10.7 µM
  TGI: > 100 µM
UACC-257 melanoma
  GI50: 1440 nM
  TGI: 5.25 µM
OVCAR-3 ovarian
  GI50: 1380 nM
  TGI: 3800 nM
SF-295 CNS
  GI50: 1490 nM
  TGI: 4350 nM
NCI-H226 lung
  GI50: 163 nM
  TGI: 439 nM
NCI-H322M lung
  GI50: 44.8 µM
  TGI: > 100000 nM
A498 renal
  GI50: 1620 nM
  TGI: 5.91 µM
TK-10 renal
  GI50: 1840 nM
  TGI: 4.86 µM
HOP-62 NSCLC
  GI50: 3870 nM
  TGI: 17.1 µM
PC-3 prostate
  GI50: 27.6 µM
  TGI: > 100 µM
NCI-H460 NSCLC
  GI50: 16.7 µM
  TGI: > 100 µM
NCI-H522 lung
  GI50: 2000 nM
  TGI: 4740 nM
MDA-MB-468 breast
  GI50: 2290 nM
  TGI: 9.43 µM
UO-31 renal
  GI50: 3360 nM
  TGI: 13.4 µM
K-562 leukemia
  GI50: 7.21 µM
  TGI: > 100 µM
786-0 renal
  GI50: 2740 nM
  TGI: 13.9 µM
OVCAR-5 ovarian
  GI50: 8.44 µM
  TGI: > 100000 nM
HCT-116 colon
  GI50: 2080 nM
  TGI: 8.46 µM
SNB-75 CNS
  GI50: 2990 nM
  TGI: 11.2 µM
MOLT-4 leukemia
  GI50: 277 nM
  TGI: 1130 nM
HCT-15 colon
  GI50: 4260 nM
  TGI: 15.3 µM
CCRF-CEM leukemia
  GI50: 197 nM
  TGI: 504 nM
BT-549 breast
  GI50: 2260 nM
  TGI: 5.49 µM
HS 578T breast
  GI50: 1800 nM
  TGI: 3.69 µM
SK-MEL-5 melanoma
  GI50: 2360 nM
  TGI: 7.59 µM
SK-MEL-28 melanoma
  GI50: 1330 nM
  TGI: 4170 nM
T-47D breast
  GI50: 5.11 µM
  TGI: 45.8 µM
CAKI-1 renal
  GI50: 3.24 µM
  TGI: > 100 µM
RPMI-8226 leukemia
  GI50: 173 nM
  TGI: 359 nM
NCI-H23 lung
  GI50: 3700 nM
  TGI: 27.3 µM
HCC-2998 colon
  GI50: 4.45 µM
  TGI: 20.9 µM
ACHN renal
  GI50: 1090 nM
  TGI: > 100 µM
DU-145 prostate
  GI50: 4280 nM
  TGI: > 100 µM
SR leukemia
  GI50: 219 nM
  TGI: 605 nM

## Cc1sc2c(c1C)C(c1ccc(Cl)cc1)=N[C@@H](CC(=O)Nc1ccc(OCCOCCOCCOCCNc3cccc4c3C(=O)N(C3CCC(=O)NC3=O)C4=O)cc1)c1nnc(C)n1-2 (some centres undefined)
SK-OV-3 ovarian
  GI50: 76.5 nM
  TGI: 0.228 µM
KM12 colon
  GI50: 37.4 nM
  TGI: > 100 µM
SK-MEL-2 melanoma
  GI50: < 10 nM
  TGI: 25.5 nM
IGROV1 ovarian
  GI50: 0.0265 µM
  TGI: 0.123 µM
SNB-19 CNS
  GI50: 51.6 nM
  TGI: > 100 µM
SF-539 CNS
  GI50: 90.4 nM
  TGI: 1120 nM
HL-60(TB) leukemia
  GI50: < 10 nM
  TGI: < 10 nM
MDA-MB-231 breast
  GI50: < 0.01 µM
  TGI: 0.024 µM
MCF7 breast
  GI50: < 10 nM
  TGI: 40.3 nM
SN12C renal
  GI50: 0.0376 µM
  TGI: > 100 µM
MALME-3M melanoma
  GI50: 133 nM
  TGI: 326 nM
COLO 205 colon
  GI50: 0.0107 µM
  TGI: 44.6 nM
OVCAR-4 ovarian
  GI50: 0.0152 µM
  TGI: 0.0341 µM
RXF 393 renal
  GI50: 34.9 nM
  TGI: 96.2 nM
MDA-MB-435 melanoma
  GI50: 31.6 nM
  TGI: 166 nM
HT29 colon
  GI50: 106 nM
  TGI: 434 nM
NCI/ADR-RES ovarian
  GI50: 21.8 µM
  TGI: > 100 µM
HOP-92 NSCLC
  GI50: 0.0253 µM
  TGI: 0.291 µM
OVCAR-8 ovarian
  GI50: < 0.01 µM
  TGI: 18.7 nM
SW-620 colon
  GI50: 33.5 nM
  TGI: > 100 µM
U251 glioblastoma
  GI50: 0.186 µM
  TGI: 80.1 µM
LOX IMVI melanoma
  GI50: 68.4 nM
  TGI: 0.203 µM
A549 NSCLC
  GI50: 0.0361 µM
  TGI: > 100 µM
UACC-257 melanoma
  GI50: 179 nM
  TGI: 28.2 µM
OVCAR-3 ovarian
  GI50: 69.1 nM
  TGI: 431 nM
SF-295 CNS
  GI50: 131 nM
  TGI: 550 nM
NCI-H226 lung
  GI50: 31.5 nM
  TGI: 131 nM
UACC-62 melanoma
  GI50: 34.7 nM
  TGI: 162 nM
NCI-H322M lung
  GI50: 0.0164 µM
  TGI: 78.9 nM
A498 renal
  GI50: 166 nM
  TGI: > 100 µM
TK-10 renal
  GI50: 190 nM
  TGI: > 100 µM
HOP-62 NSCLC
  GI50: 22.4 nM
  TGI: 0.0755 µM
PC-3 prostate
  GI50: 0.0153 µM
  TGI: > 100 µM
NCI-H460 NSCLC
  GI50: 0.38 µM
  TGI: > 100 µM
NCI-H522 lung
  GI50: 37.1 nM
  TGI: 182 nM
MDA-MB-468 breast
  GI50: 15.2 nM
  TGI: 0.0399 µM
UO-31 renal
  GI50: 305 nM
  TGI: > 100 µM
K-562 leukemia
  GI50: 0.054 µM
  TGI: 87.1 µM
786-0 renal
  GI50: 44.4 nM
  TGI: 0.81 µM
OVCAR-5 ovarian
  GI50: 0.0428 µM
  TGI: 1470 nM
HCT-116 colon
  GI50: 56.8 nM
  TGI: 13.6 µM
MOLT-4 leukemia
  GI50: < 10 nM
  TGI: 19.8 nM
HCT-15 colon
  GI50: 121 nM
  TGI: 0.278 µM
CCRF-CEM leukemia
  GI50: < 10 nM
  TGI: 11.9 nM
BT-549 breast
  GI50: < 10 nM
  TGI: < 0.01 µM
SK-MEL-5 melanoma
  GI50: 30 nM
  TGI: 0.118 µM
SK-MEL-28 melanoma
  GI50: 130 nM
  TGI: 799 nM
T-47D breast
  GI50: < 0.01 µM
  TGI: < 0.01 µM
RPMI-8226 leukemia
  GI50: < 10 nM
  TGI: < 10 nM
NCI-H23 lung
  GI50: 182 nM
  TGI: 0.443 µM
HCC-2998 colon
  GI50: < 0.01 µM
  TGI: 0.0217 µM
ACHN renal
  GI50: 534 nM
  TGI: > 100 µM
DU-145 prostate
  GI50: 624 nM
  TGI: 16.1 µM
SR leukemia
  GI50: 19.4 nM
  TGI: 69 nM

From PubChem BioAssay (NCI)
